The assay concerns the target T1, SIRT1 (Homo sapiens, UniProt Q96EB6).
T1 sequence (Q96EB6 1-747): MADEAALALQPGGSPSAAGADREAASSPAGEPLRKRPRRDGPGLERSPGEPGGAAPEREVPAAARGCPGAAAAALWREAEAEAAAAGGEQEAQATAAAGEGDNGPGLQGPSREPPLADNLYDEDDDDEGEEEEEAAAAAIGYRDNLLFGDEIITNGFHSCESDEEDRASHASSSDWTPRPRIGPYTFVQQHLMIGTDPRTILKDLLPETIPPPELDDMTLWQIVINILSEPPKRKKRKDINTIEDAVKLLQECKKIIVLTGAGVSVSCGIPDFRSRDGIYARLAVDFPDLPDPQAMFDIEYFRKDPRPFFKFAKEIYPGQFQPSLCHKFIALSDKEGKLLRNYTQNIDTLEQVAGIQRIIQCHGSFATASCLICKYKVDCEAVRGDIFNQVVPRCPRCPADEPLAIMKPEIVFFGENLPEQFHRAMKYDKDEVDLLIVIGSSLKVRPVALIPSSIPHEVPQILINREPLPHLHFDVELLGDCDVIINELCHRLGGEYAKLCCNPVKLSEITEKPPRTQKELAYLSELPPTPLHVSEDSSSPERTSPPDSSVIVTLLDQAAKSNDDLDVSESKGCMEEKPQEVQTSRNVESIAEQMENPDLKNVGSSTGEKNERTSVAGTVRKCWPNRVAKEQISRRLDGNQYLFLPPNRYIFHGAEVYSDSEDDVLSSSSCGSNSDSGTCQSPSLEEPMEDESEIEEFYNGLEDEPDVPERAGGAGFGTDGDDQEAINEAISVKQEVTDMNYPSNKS
The experiment in a line: Mass spectrometry based SIRT1 deacetylase activation assay (acetylated p53-derived peptide substrate). The assay is classed as biochemical.

[1] abbreviates: 0.5 μM peptide substrate, 120 μM βNAD+, 10 nM SIRT1, 25 min at 25° C.
Setting [2] is: 0.5 μM peptide substrate, 120 μM βNAD+, 10 nM SIRT1, 25 min at 25° C., read-out: EC1.5.
Where [3] appears, read: 0.5 μM peptide substrate, 120 μM βNAD+, 10 nM SIRT1, 25 minutes at 25° C.

Read-outs that look alike come from different tables or passages of the source.

The results in this text go back to patent publication US8846947B2, “Benzimidazoles and related analogs as sirtuin modulators” (GlaxoSmithKline LLC, priority 2008, dated 2014).

Consider `O=C(Nc1ccc[n+]([O-])c1)c1cccc2[nH]c(-c3ccc(Cl)cc3C(F)(F)F)nc12` [Compound 331], for which the EC1.5 entry was “A (EC1.5<1.0 uM)” and the “Fold Act. (percent maximum fold activation)” value is given as “A (Fold activation >200%)”.

Take `O=C(Nc1cccnc1)c1cccc2[nH]c(-c3ccc(Cl)cc3C(F)(F)F)nc12` [Compound 312]: the EC1.5 result was “A (EC1.5<1.0 uM)” and the “Fold Act. (percent maximum fold activation)” value is listed as “A (Fold activation >200%)”.

Consider `Cc1nc(NC(=O)c2cccc3[nH]c(-c4ccc(N5CCOCC5)cc4C(F)(F)F)nc23)sc1C` [Compound 589], for which, under setting [1], the “Fold Act. (percent maximum fold activation)” value is given as “A (Fold activation >200%)”. Also, the EC1.5 under setting [2] was less than 1000 nM.

For the molecule `O=C(Nc1ccc(CN2CCCC2)nc1)c1cccc2[nH]c(-c3ccc(Cl)cc3C(F)(F)F)nc12` [Compound 685], under setting [3], the EC1.5 result is listed as “A (EC1.5<1.0 uM)” and the “Fold Act. (percent maximum fold activation)” value is “A (Fold activation >200%)”.

On to `Cc1cnc(NC(=O)c2cccc3[nH]c(-c4cnc5c(c4)OCCN5C)nc23)s1` [Compound 440], for which the “Fold Act. (percent maximum fold activation)” value under setting [1] is reported as “A (Fold activation >200%)”. Besides, under setting [2], the EC1.5 was less than 1000 nM.

As for `C[C@@H]1CN(c2ccc(-c3nc4c(C(=O)Nc5nccs5)cccc4[nH]3)c(C(F)(F)F)c2)C[C@H](C)O1` [Compound 603], under setting [3], the EC1.5 result is reported as “A (EC1.5<1.0 uM)” and the “Fold Act. (percent maximum fold activation)” value is given as “A (Fold activation >200%)”.

Take `O=C(Nc1cccnn1)c1cncc2[nH]c(-c3ccccc3C(F)(F)F)nc12` [Compound 638]: under setting [3], the EC1.5 result is on record as “A (EC1.5<1.0 uM)” and the “Fold Act. (percent maximum fold activation)” value is on record as “A (Fold activation >200%)”.

For `Cc1nc(C)c(-c2nc3c(C(=O)Nc4ccc(OC[C@@H](O)CO)cc4)cccc3[nH]2)s1` [Compound 789], under setting [3], the EC1.5 result is recorded as “A (EC1.5<1.0 uM)” and the “Fold Act. (percent maximum fold activation)” value is reported as “A (Fold activation >200%)”.

For the molecule `O=C(Nc1nccs1)c1cccc2[nH]c(-c3ccccc3N3CCOCC3)nc12` [Compound 256], the EC1.5 result is on record as “B (EC1.5 1-25 uM)” and the “Fold Act. (percent maximum fold activation)” value was “A (Fold activation >200%)”.

As for `N#Cc1cccc(-c2nc3c(C(=O)Nc4nccs4)cccc3[nH]2)c1` [Compound 211], the EC1.5 result is reported as “B (EC1.5 1-25 uM)” and the “Fold Act. (percent maximum fold activation)” value is given as “A (Fold activation >200%)”.

On to `O=C(Nc1nc(-c2ccccc2)cs1)c1cccc2[nH]c(-c3cccc(C(F)(F)F)c3)nc12` [Compound 283], for which the EC1.5 result is “B (EC1.5 1-25 uM)” and the “Fold Act. (percent maximum fold activation)” value is “A (Fold activation >200%)”.

Consider `O=C(Nc1ccc(CN2CCOCC2)nc1)c1cccc2[nH]c(-c3cc(F)ccc3C(F)(F)F)nc12` [Compound 686, 2-(5-fluoro-2-(trifluoromethyl)phenyl)-N-(6-(morpholinomethyl)pyridin-3-yl)-1H-benzo[d]imidazole-4-carboxamide], for which, under setting [3], the EC1.5 result is recorded as “A (EC1.5<1.0 uM)” and the “Fold Act. (percent maximum fold activation)” value was “A (Fold activation >200%)”.

Consider `O=C(Nc1nccs1)c1cccc2[nH]c(-c3cc(N4CC[C@H](F)C4)ccc3C(F)(F)F)nc12` [Compound 665], for which, under setting [3], the EC1.5 entry is reported as “A (EC1.5<1.0 uM)” and the “Fold Act. (percent maximum fold activation)” value is given as “A (Fold activation >200%)”.

For the molecule `COc1cc(C(=O)Nc2nccs2)c2nc(-c3ccc(Cl)cc3C(F)(F)F)[nH]c2c1` [Compound 635], under setting [3], the EC1.5 entry was “A (EC1.5<1.0 uM)” and the “Fold Act. (percent maximum fold activation)” value was “A (Fold activation >200%)”.

For `CC1(C)CN(c2ccc(-c3nc4c(C(=O)Nc5nccs5)cccc4[nH]3)c(C(F)(F)F)c2)CCO1` [Compound 706], under setting [3], the EC1.5 result is “A (EC1.5<1.0 uM)” and the “Fold Act. (percent maximum fold activation)” value is “A (Fold activation >200%)”.

As to `O=C(Nc1cccc(CN2CCCC2)c1)c1cccc2[nH]c(-c3ccc(Cl)cc3C(F)(F)F)nc12` [Compound 490, 2-(4-chloro-2-(trifluoromethyl)phenyl)-N-(3-(pyrrolidin-1-ylmethyl)phenyl)-1H-benzo[d]imidazole-4-carboxamide], the “Fold Act. (percent maximum fold activation)” value under setting [1] is recorded as “A (Fold activation >200%)”. Moreover, the EC1.5 under setting [2] was less than 1000 nM.

Regarding `O=C(Nc1cccnc1)c1cncc2[nH]c(-c3ccc(F)cc3C(F)(F)F)nc12` [Compound 695], under setting [3], the EC1.5 entry is recorded as “A (EC1.5<1.0 uM)” and the “Fold Act. (percent maximum fold activation)” value was “A (Fold activation >200%)”.

Turning to `O=C(Nc1ccc(CN2CCOCC2)cn1)c1cccc2[nH]c(-c3ccccc3C(F)(F)F)nc12` [Compound 673], under setting [3], the EC1.5 entry is “A (EC1.5<1.0 uM)” and the “Fold Act. (percent maximum fold activation)” value was “A (Fold activation >200%)”.

As for `O=C(Nc1nccs1)c1cccc2[nH]c(-c3ccc4c(c3)OC(F)(F)O4)nc12` [Compound 221], the EC1.5 entry was “C (EC1.5 >25 uM)” and the “Fold Act. (percent maximum fold activation)” value is recorded as “B (Fold Activation <200%)”.

In the case of `CS(=O)(=O)c1cc(Cl)ccc1-c1nc2c(C(=O)Nc3nccs3)cccc2[nH]1` [Compound 520], the “Fold Act. (percent maximum fold activation)” value under setting [1] was “A (Fold activation >200%)”. In addition, the EC1.5 under setting [2] was in the range of 1000 to 25000 nM.

For the molecule `O=C(Nc1cccc(OC[C@@H](O)CO)c1)c1cccc2[nH]c(-c3ccc(F)cc3C(F)F)nc12` [Compound 718], under setting [3], the EC1.5 result is “A (EC1.5<1.0 uM)” and the “Fold Act. (percent maximum fold activation)” value was “A (Fold activation >200%)”.

In the case of `O=C(Nc1ccccn1)c1cc(N2CCOCC2)cc2[nH]c(-c3ccccc3C(F)F)nc12` [Compound 736], under setting [3], the EC1.5 result is recorded as “A (EC1.5<1.0 uM)” and the “Fold Act. (percent maximum fold activation)” value is listed as “A (Fold activation >200%)”.

Turning to `O=C(Nc1cccnc1)c1cncc2nc(-c3ccc(N4CCCC4)cc3C(F)F)[nH]c12` [Compound 812], under setting [3], the EC1.5 result is “A (EC1.5<1.0 uM)” and the “Fold Act. (percent maximum fold activation)” value was “A (Fold activation >200%)”.

For the molecule `Cc1cnc(NC(=O)c2cccc3[nH]c(-c4ccnn4-c4ccccc4)nc23)s1` [Compound 381], the EC1.5 result was “A (EC1.5<1.0 uM)” and the “Fold Act. (percent maximum fold activation)” value is reported as “A (Fold activation >200%)”.

As for `O=C(Nc1ccncn1)c1cccc2[nH]c(-c3ccc(N4CCOCC4)cc3C(F)(F)F)nc12` [Compound 591], the “Fold Act. (percent maximum fold activation)” value under setting [1] is “A (Fold activation >200%)”. Moreover, the EC1.5 under setting [2] is less than 1000 nM.

Regarding `O=C(Nc1ccccn1)c1cccc2[nH]c(-c3cccc(OC4CCNC4)c3)nc12` (stereo not drawn) [Compound 463], the “Fold Act. (percent maximum fold activation)” value under setting [1] is “A (Fold activation >200%)”. The EC1.5 under setting [2] was 1000 to 25000 nM.

Regarding `O=C(Nc1nccs1)c1cccc2[nH]c(-c3ccc(F)c(F)c3)nc12` [Compound 214], the EC1.5 result is reported as “C (EC1.5 >25 uM)” and the “Fold Act. (percent maximum fold activation)” value is listed as “B (Fold Activation <200%)”.

As for `Cc1ccc(OCCN2CCOCC2)c(-c2nc3c(C(=O)Nc4nccs4)cccc3[nH]2)c1` [Compound 545], the “Fold Act. (percent maximum fold activation)” value under setting [1] was “A (Fold activation >200%)”. Also, the EC1.5 under setting [2] is less than 1000 nM.

On to `O=C(Nc1cccnc1)c1cccc2[nH]c(-c3ccc(N4CC[C@H](F)C4)cc3C(F)(F)F)nc12` [Compound 574], for which the “Fold Act. (percent maximum fold activation)” value under setting [1] was “A (Fold activation >200%)”. Also, under setting [2], the EC1.5 is less than 1000 nM.

As for `O=C(Nc1cccc(OC[C@H](O)CO)c1)c1cccc2[nH]c(-c3cc(F)ccc3C(F)F)nc12` [Compound 719], under setting [3], the EC1.5 entry was “A (EC1.5<1.0 uM)” and the “Fold Act. (percent maximum fold activation)” value is “A (Fold activation >200%)”.

On to `O=C(Nc1nccs1)c1cc(N2CCOCC2)cc2[nH]c(-c3ccccc3C(F)(F)F)nc12` [Compound 628, 6-morpholino-N-(thiazol-2-yl)-2-(2-(trifluoromethyl)phenyl)-1H-benzo[d]imidazole-4-carboxamide], for which, under setting [3], the EC1.5 result was “A (EC1.5<1.0 uM)” and the “Fold Act. (percent maximum fold activation)” value is recorded as “A (Fold activation >200%)”.

Consider `O=C(Nc1nccs1)c1cccc2[nH]c(-c3ccc(F)cc3C(F)(F)F)nc12` [Compound 263], for which the EC1.5 result was “A (EC1.5<1.0 uM)” and the “Fold Act. (percent maximum fold activation)” value is given as “A (Fold activation >200%)”.

With `O=C(Nc1nccs1)c1cccc2[nH]c(-c3ccccc3-c3ccccc3)nc12` [Compound 255], the EC1.5 result is “B (EC1.5 1-25 uM)” and the “Fold Act. (percent maximum fold activation)” value is “A (Fold activation >200%)”.

With `O=C1COc2ccc(-c3nc4c(C(=O)Nc5ccccn5)cccc4[nH]3)cc2N1` [Compound 565], the “Fold Act. (percent maximum fold activation)” value under setting [1] was “B (Fold Activation <200%)”. In addition, under setting [2], the EC1.5 was 1000 to 25000 nM.

As to `O=C(Nc1nccs1)c1cccc2[nH]c(-c3cc(F)cc(C(F)(F)F)c3)nc12` [Compound 210], the EC1.5 entry is “B (EC1.5 1-25 uM)” and the “Fold Act. (percent maximum fold activation)” value was “B (Fold Activation <200%)”.

For `O=C(Nc1cccc(OC[C@H](O)CO)c1)c1cccc2[nH]c(-c3ccc(N4CC[C@H](F)C4)cc3C(F)(F)F)nc12` [Compound 779], under setting [3], the EC1.5 result is listed as “A (EC1.5<1.0 uM)” and the “Fold Act. (percent maximum fold activation)” value is listed as “A (Fold activation >200%)”.
